# Reference: patent US20240327393A1 (SIRONAX LTD., priority 2021, published 2024)
# System: HT-1080 (ATCC, CCL-121) cells
# Assay: HT-1080 cell viability assay with ferroptosis inducer RSL3 (Cell Titer-Glo)
# Type: cell-based
# Settings: Homo sapiens; HT-1080 cells treated with RSL3; 3-fold, 10-point dilution, 1.1 μM highest concentration; Table 2; read-out: EC50 (nM), ferroptosis inhibitory activity
# Procedure, shortened: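 EC50 was derived by sigmoidal dose-response regression of CellTiter-Glo luminescence viability, expressed relative to untreated wells. Compounds were tested in a ten-point, threefold dilution series (highest 1.1 μM) in the presence of the ferroptosis inducer RSL3. HT-1080 cells had been seeded at 6000 per well and grown overnight first.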
row,EC50 [nM],SMILES
1,0.1 to 100,"Cc1cc(N2CCC(C(F)(F)F)CC2)ncc1Nc1ccc2c(c1)n(C)c(=O)n2C [Compound 379, 1,3-dimethyl-5-((4-methyl-6-(4-(trifluoromethyl)piperidin-1-yl)pyridin-3-yl)amino)-1,3-dihydro-2H-benzo[d]imidazol-2-one]"
2,0.1 to 100,"COc1cc(N2CCC(C(F)(F)F)CC2)ncc1Nc1ccc2c(c1)n(C)c(=O)n2C [Compound 380, 5-((4-methoxy-6-(4-(trifluoromethyl)piperidin-1-yl)pyridin-3-yl)amino)-1,3-dimethyl-1,3-dihydro-2H-benzo[d]imidazol-2-one]"
3,0.1 to 100,"Cn1c(=O)n(C)c2cc(Nc3ccccc3)ccc21 [Compound 382, 1,3-dimethyl-5-(phenylamino)-1,3-dihydro-2H-benzo[d]imidazol-2-one]"
4,0.1 to 100,"Cn1cc(C(N)=O)c2cc(Nc3ccc(N4CCC(C(F)(F)F)CC4)cc3)ccc21 [Compound 383, 1-methyl-5-((4-(4-(trifluoromethyl)piperidin-1-yl)phenyl)amino)-1H-indole-3-carboxamide]"
5,0.1 to 100,"COC1(C(F)(F)F)CCN(c2ccc(Nc3ccc4c(c3)n(C)c(=O)n4C)cc2)CC1 [Compound 384, 5-((4-(4-methoxy-4-(trifluoromethyl)piperidin-1-yl)phenyl)amino)-1,3-dimethyl-1,3-dihydro-2H-benzo[d]imidazol-2-one]"
6,0.1 to 100,"Cn1c(=O)n(C)c2cc(Nc3ccc(N4CCC(CF)CC4)cc3)ccc21 [Compound 385, 5-((4-(4-(fluoromethyl)piperidin-1-yl)phenyl)amino)-1,3-dimethyl-1,3-dihydro-2H-benzo[d]imidazol-2-one]"
7,0.1 to 100,"COC1(C(F)(F)F)CCN(c2ccc(Nc3ccc4c(c3)oc(=O)n4C)cc2)CC1 [Compound 386, 6-((4-(4-methoxy-4-(trifluoromethyl)piperidin-1-yl)phenyl)amino)-3-methylbenzo[d]oxazol-2(3H)-one]"
8,0.1 to 100,"Cn1c(=O)oc2cc(Nc3ccc(N4CCC(CF)CC4)cc3)ccc21 [Compound 387, 6-((4-(4-(fluoromethyl)piperidin-1-yl)phenyl)amino)-3-methylbenzo[d]oxazol-2(3H)-one]"
9,0.1 to 100,"Cn1c(=O)oc2ccc(Nc3cnc(N4CCC(C(F)(F)F)CC4)c(F)c3)cc21 [Compound 388, 5-((5-fluoro-6-(4-(trifluoromethyl)piperidin-1-yl)pyridin-3-yl)amino)-3-methylbenzo[d]oxazol-2(3H)-one]"
10,0.1 to 100,"Cn1c(=O)oc2ccc(Nc3ccc(N4CCCCC4)cc3)cc21 [Compound 389, 3-methyl-5-((4-(piperidin-1-yl)phenyl)amino)benzo[d]oxazol-2(3H)-one]"
11,0.1 to 100,"COC1(C(F)(F)F)CCN(c2ccc(Nc3ccc4oc(=O)n(C)c4c3)cc2)CC1 [Compound 390, 5-((4-(4-methoxy-4-(trifluoromethyl)piperidin-1-yl)phenyl)amino)-3-methylbenzo[d]oxazol-2(3H)-one]"
12,0.1 to 100,"Cn1c(=O)oc2ccc(Nc3ccc(N4CCC(CF)CC4)cc3)cc21 [Compound 391, 5-((4-(4-(fluoromethyl)piperidin-1-yl)phenyl)amino)-3-methylbenzo[d]oxazol-2(3H)-one]"
13,0.1 to 100,"CCn1c(=O)oc2ccc(Nc3ccc(N4CCC(C(F)(F)F)CC4)cc3)cc21 [Compound 392, 3-ethyl-5-((4-(4-(trifluoromethyl)piperidin-1-yl)phenyl)amino) benzo[d]oxazol-2(3H)-one]"
14,0.1 to 100,COCCn1c(=O)oc2ccc(Nc3ccc(N4CCC(C(F)(F)F)CC4)cc3)cc21 [Compound 393]
15,0.1 to 100,"Cn1c(=O)n(C)c2cc(Nc3ccc(C4CCCCC4)cc3)ccc21 [Compound 394, 5-((4-cyclohexylphenyl)amino)-1,3-dimethyl-1,3-dihydro-2H-benzo[d]imidazol-2-one]"
16,0.1 to 100,"COc1cc(Nc2ccc(N3CCC(C(F)(F)F)CC3)cc2)cc2c1ccn2C [Compound 395, 4-methoxy-1-methyl-N-(4-(4-(trifluoromethyl)piperidin-1-yl)phenyl)-1H-indol-6-amine]"
17,0.1 to 100,"Cn1c(NCC2CC2)cc2ccc(Nc3ccc(N4CCC(C(F)(F)F)CC4)cc3)cc21 [Compound 396, N2-(cyclopropylmethyl)-1-methyl-N6-(4-(4-(trifluoromethyl)piperidin-1-yl)phenyl)-1H-indole-2,6-diamine]"
18,0.1 to 100,"Cn1c(N(CC2CC2)CC2CC2)cc2ccc(Nc3ccc(N4CCC(C(F)(F)F)CC4)cc3)cc21 [Compound 397, N2,N2-bis(cyclopropylmethyl)-1-methyl-N6-(4-(4-(trifluoromethyl)piperidin-1-yl)phenyl)-1H-indole-2,6-diamine]"
19,0.1 to 100,"NC(=O)n1ncc2cc(Nc3ccc(N4CCC(C(F)(F)F)CC4)cc3)ccc21 [Compound 398, 5-((4-(4-(trifluoromethyl)piperidin-1-yl)phenyl)amino)-1H-indazole-1-carboxamide]"
20,0.1 to 100,"CN(C)c1cn(C)c2cccc(Nc3ccc(N4CCC(C(F)(F)F)CC4)cc3)c12 [Compound 399, N3,N3,1-trimethyl-N4-(4-(4-(trifluoromethyl)piperidin-1-yl)phenyl)-1H-indole-3,4-diamine]"

row,EC50 [nM],SMILES
1,0.1 to 100,"COc1cc(Nc2ccc(N3CCC(C(F)(F)F)CC3)cc2)cc2c1oc(=O)n2C [Compound 400, 7-methoxy-3-methyl-5-((4-(4-(trifluoromethyl)piperidin-1-yl)phenyl)amino)benzo[d]oxazol-2(3H)-one]"
2,0.1 to 100,"CCNc1nc2cc(Nc3ccc(N4CCC(C(F)(F)F)CC4)cc3)ccc2n1C [Compound 401, N2-ethyl-1-methyl-N5-(4-(4-(trifluoromethyl)piperidin-1-yl)phenyl)-1H-benzo[d]imidazole-2,5-diamine]"
3,0.1 to 100,"CCN(CC)c1nc2ccc(Nc3ccc(N4CCC(C(F)(F)F)CC4)cc3)cc2n1C [Compound 402, N2,N2-diethyl-1-methyl-N6-(4-(4-(trifluoromethyl)piperidin-1-yl)phenyl)-1H-benzo[d]imidazole-2,6-diamine]"
4,0.1 to 100,"Cn1cc(C(N)=O)c2ccc(Nc3ccc(N4CCC(C(F)(F)F)CC4)cc3)cc21 [Compound 403, 1-methyl-6-((4-(4-(trifluoromethyl)piperidin-1-yl)phenyl)amino)-1H-indole-3-carboxamide]"
5,0.1 to 100,"Cn1c(=O)n(C)c2cc(Nc3ccc(C(F)(F)F)cc3)ccc21 [Compound 404, 1,3-dimethyl-5-((4-(trifluoromethyl)phenyl)amino)-1,3-dihydro-2H-benzo [d]imidazol-2-one]"
6,0.1 to 100,"CN(C)CCn1c(=O)n(C)c2cc(Nc3ccc(C4CCC(C)(C)CC4)cc3)ccc21 [Compound 405, 1-(2-(dimethylamino)ethyl)-5-((4-(4,4-dimethylcyclohexyl)phenyl)amino)-3-methyl-1,3-dihydro-2H-benzo[d]imidazol-2-one]"
7,0.1 to 100,"Cn1c(=O)oc2cc(Nc3ccc(C4CCC(C)(C)CC4)cc3)ccc21 [Compound 406, 6-((4-(4,4-dimethylcyclohexyl)phenyl)amino)-3-methylbenzo[d]oxazol-2(3H)-one]"
8,0.1 to 100,"Cn1c(=O)n(C)c2cc(Nc3ccc(C4CCC(C)(C)CC4)cc3)ccc21 [Compound 407, 5-((4-(4,4-dimethylcyclohexyl)phenyl)amino)-1,3-dimethyl-1,3-dihydro-2H-benzo[d]imidazol-2-one]"
9,0.1 to 100,"CC1(C)CCC(c2ccc(Oc3ccc4nc(N)sc4c3)cc2)CC1 [Compound 408, 6-(4-(4,4-dimethylcyclohexyl)phenoxy)benzo[d]thiazol-2-amine]"
10,0.1 to 100,"CC1(C)CCC(c2ccc(Nc3ccc4nc(N)sc4c3)cc2)CC1 [Compound 409, N^6-(4-(4,4-dimethylcyclohexyl)phenyl)benzo[d]thiazole-2,6-diamine]"
11,0.1 to 100,"Cc1cc(N2CCC(C(F)(F)F)CC2)ccc1Nc1ccc2c(c1)CNC2 [Compound 410, N-(2-methyl-4-(4-(trifluoromethyl)piperidin-1-yl)phenyl) isoindolin-5-amine]"
12,0.1 to 100,"CCC(C)(C)c1ccc(Nc2ccc3c(c2)n(C)c(=O)n3C)cc1 [Compound 411, 1,3-dimethyl-5-((4-(tert-pentyl)phenyl)amino)-1,3-dihydro-2H-benzo[d]imidazol-2-one]"
13,0.1 to 100,"NC(=O)CCn1ncc2cc(Nc3ccc(N4CCC(C(F)(F)F)CC4)cc3)ccc21 [Compound 412, 3-(5-((4-(4-(trifluoromethyl)piperidin-1-yl)phenyl)amino)-1H-indazol-1-yl)propanamide]"
14,0.1 to 100,"NC(=O)CCn1cc2cc(Nc3ccc(N4CCC(C(F)(F)F)CC4)cc3)ccc2n1 [Compound 413, 3-(5-((4-(4-(trifluoromethyl)piperidin-1-yl)phenyl)amino)-2H-indazol-2-yl)propanamide]"
15,0.1 to 100,"CNCCCn1ncc2cc(Nc3ccc(N4CCC(C(F)(F)F)CC4)cc3)ccc21 [Compound 414, 1-(3-(methylamino)propyl)-N-(4-(4-(trifluoromethyl)piperidin-1-yl)phenyl)-1H-indazol-5-amine]"
16,0.1 to 100,"CNCCCn1cc2cc(Nc3ccc(N4CCC(C(F)(F)F)CC4)cc3)ccc2n1 [Compound 415, 2-(3-(methylamino)propyl)-N-(4-(4-(trifluoromethyl)piperidin-1-yl)phenyl)-2H-indazol-5-amine]"
17,0.1 to 100,CNCCCn1c(=O)oc2ccc(Nc3ccc(N4CC(C)OC(C)C4)cc3)cc21 (stereo not drawn) [Compound 416]
18,0.1 to 100,"NC(=O)NCCn1c(=O)oc2ccc(Nc3ccc(N4CCC(C(F)(F)F)CC4)cc3)cc21 [Compound 417, 1-(2-(2-oxo-5-((4-(4-(trifluoromethyl)piperidin-1-yl)phenyl)amino)benzo[d]oxazol-3(2H)-yl)ethyl)urea]"
19,0.1 to 100,"CNCCCn1c(=O)oc2ccc(Nc3ccc(N4CCC(C(F)(F)F)CC4)cc3)cc21 [Compound 418, 3-(3-(methylamino)propyl)-5-((4-(4-(trifluoromethyl)piperidin-1-yl)phenyl)amino)benzo[d]oxazol-2(3H)-one]"
